Results taken from article PMC2116235 (The Journal of Cell Biology, 1990).
Each block holds one substance with its values, some of them ahead of it.

What was measured:
[1] = tested on: bovine aortic endothelial cells; assay: Cell spreading assay; assay type: cell-based; settings: 37C
[2] = molecular target: T1, type IV collagen (Mus musculus, UniProt P02463+P08122); assay: Turbidity of type IV collagen assembly; assay type: biochemical, murine (EHS tumor); settings: peptide 100 µg/ml with type IV collagen-NC1 domain mixtures, 37C, 360 nm
[3] = molecular target: T1, type IV collagen; assay: Solid phase binding of 125I-peptides to type IV collagen; parameters: species or system murine (EHS tumor); settings: 37C, 2 h; for Competition of bound 125I-peptide by unlabeled corresponding peptide: 5 µg 125I-peptide, unlabeled peptide up to 400-fold excess (2 mg/ml)
[4] = tested on: bovine aortic endothelial cells; assay: Binding of 125I-Hep-I to endothelial cells in solution, direct and competition; settings: 5 µg 125I-Hep-I; unlabeled peptide up to 400-fold excess, 4C, 20 min
[5] = tested on: adhesion of bovine aortic endothelial cells to NC1 domain; assay: Competition of endothelial cell binding to NC1 domain by peptides; assay type: cell-based
[6] = tested on: microvascular endothelial cells; assay: Adhesion of microvascular endothelial cells; assay type: cell-based; settings: preliminary observations
[7] = tested on: BSA; assay: Nonspecific binding of peptide to BSA-coated plastic; settings: BSA coated onto plastic; all concentrations used; data not shown
[8] = tested on: murine melanoma cells; assay: Adhesion of murine melanoma cells; assay type: cell-based; settings: preliminary observations
[9] = tested on: adhesion of bovine aortic endothelial cells to type IV collagen; assay: Competition of endothelial cell binding to type IV collagen by peptides; assay type: cell-based; settings: ~5 µg (100 µg/ml) peptide; type IV collagen coated at 10 µg/ml; 60 min at 37C
[10] = tested on: type IV collagen; settings: cited from earlier work
[11] = cited from earlier work
[12] = tested on: adhesion of bovine aortic endothelial cells to type IV collagen; assay type: cell-based; settings: type IV collagen 1-60 µg/ml; glycosaminoglycan up to 10 mg/ml; 60 min at 37C
[13] = molecular target: intact type IV collagen (EHS tumor) (mouse (endogenous in the EHS tumor)); assay: rotary shadowing electron microscopy
[14] = tested on: bovine aortic endothelial cells; assay: Direct solid phase cell-binding; assay type: cell-based; settings: 35S-labeled cells, 37C, 30-60 min
[15] = tested on: bovine aortic endothelial cells; settings: as compared to fibronectin or laminin; cited from earlier work
[16] = 30 min, substrate type IV collagen 10 µg/ml or peptide Hep-I 20 µg/ml

T1 sequence (P02463 173-1669): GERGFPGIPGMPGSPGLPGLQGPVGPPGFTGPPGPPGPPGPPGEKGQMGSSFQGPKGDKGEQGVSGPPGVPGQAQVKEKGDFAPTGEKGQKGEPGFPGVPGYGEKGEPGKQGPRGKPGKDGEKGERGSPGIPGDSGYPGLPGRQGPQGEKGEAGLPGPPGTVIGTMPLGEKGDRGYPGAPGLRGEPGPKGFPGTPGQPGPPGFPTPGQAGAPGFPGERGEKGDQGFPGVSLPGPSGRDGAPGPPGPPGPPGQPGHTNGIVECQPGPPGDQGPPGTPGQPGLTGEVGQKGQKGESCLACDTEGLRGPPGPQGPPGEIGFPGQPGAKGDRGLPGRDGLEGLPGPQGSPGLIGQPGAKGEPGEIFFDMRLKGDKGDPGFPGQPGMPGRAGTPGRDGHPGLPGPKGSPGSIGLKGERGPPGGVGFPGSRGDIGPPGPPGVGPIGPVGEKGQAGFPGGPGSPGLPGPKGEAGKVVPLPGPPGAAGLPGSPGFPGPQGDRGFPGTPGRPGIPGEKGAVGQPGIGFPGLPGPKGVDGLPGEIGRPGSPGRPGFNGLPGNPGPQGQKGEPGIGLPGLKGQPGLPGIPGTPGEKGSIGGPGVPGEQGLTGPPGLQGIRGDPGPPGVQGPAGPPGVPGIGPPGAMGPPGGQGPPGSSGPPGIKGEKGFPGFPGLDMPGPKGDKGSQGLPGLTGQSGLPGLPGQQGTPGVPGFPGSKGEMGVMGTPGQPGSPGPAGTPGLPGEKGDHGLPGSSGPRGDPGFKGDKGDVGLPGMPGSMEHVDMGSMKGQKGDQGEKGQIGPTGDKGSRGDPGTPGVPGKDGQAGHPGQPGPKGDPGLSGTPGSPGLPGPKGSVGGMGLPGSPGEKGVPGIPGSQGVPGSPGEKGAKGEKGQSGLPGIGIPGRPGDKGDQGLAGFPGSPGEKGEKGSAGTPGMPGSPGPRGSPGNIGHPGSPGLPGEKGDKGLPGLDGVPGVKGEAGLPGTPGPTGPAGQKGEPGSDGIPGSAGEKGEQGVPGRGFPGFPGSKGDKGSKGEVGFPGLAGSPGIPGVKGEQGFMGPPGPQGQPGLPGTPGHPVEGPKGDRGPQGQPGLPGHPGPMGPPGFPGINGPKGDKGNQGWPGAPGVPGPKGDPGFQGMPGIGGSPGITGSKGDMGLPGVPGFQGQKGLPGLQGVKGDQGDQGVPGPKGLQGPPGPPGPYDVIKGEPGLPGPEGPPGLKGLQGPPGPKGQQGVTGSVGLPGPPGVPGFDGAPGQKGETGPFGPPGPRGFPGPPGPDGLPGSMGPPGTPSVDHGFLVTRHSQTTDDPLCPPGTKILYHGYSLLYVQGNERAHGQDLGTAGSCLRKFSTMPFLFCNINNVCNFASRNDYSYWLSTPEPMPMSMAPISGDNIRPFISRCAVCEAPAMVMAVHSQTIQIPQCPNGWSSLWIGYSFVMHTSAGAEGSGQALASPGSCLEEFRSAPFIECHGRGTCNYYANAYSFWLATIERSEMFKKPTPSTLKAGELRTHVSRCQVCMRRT
T1 sequence (P08122 29-1707 limits assumed): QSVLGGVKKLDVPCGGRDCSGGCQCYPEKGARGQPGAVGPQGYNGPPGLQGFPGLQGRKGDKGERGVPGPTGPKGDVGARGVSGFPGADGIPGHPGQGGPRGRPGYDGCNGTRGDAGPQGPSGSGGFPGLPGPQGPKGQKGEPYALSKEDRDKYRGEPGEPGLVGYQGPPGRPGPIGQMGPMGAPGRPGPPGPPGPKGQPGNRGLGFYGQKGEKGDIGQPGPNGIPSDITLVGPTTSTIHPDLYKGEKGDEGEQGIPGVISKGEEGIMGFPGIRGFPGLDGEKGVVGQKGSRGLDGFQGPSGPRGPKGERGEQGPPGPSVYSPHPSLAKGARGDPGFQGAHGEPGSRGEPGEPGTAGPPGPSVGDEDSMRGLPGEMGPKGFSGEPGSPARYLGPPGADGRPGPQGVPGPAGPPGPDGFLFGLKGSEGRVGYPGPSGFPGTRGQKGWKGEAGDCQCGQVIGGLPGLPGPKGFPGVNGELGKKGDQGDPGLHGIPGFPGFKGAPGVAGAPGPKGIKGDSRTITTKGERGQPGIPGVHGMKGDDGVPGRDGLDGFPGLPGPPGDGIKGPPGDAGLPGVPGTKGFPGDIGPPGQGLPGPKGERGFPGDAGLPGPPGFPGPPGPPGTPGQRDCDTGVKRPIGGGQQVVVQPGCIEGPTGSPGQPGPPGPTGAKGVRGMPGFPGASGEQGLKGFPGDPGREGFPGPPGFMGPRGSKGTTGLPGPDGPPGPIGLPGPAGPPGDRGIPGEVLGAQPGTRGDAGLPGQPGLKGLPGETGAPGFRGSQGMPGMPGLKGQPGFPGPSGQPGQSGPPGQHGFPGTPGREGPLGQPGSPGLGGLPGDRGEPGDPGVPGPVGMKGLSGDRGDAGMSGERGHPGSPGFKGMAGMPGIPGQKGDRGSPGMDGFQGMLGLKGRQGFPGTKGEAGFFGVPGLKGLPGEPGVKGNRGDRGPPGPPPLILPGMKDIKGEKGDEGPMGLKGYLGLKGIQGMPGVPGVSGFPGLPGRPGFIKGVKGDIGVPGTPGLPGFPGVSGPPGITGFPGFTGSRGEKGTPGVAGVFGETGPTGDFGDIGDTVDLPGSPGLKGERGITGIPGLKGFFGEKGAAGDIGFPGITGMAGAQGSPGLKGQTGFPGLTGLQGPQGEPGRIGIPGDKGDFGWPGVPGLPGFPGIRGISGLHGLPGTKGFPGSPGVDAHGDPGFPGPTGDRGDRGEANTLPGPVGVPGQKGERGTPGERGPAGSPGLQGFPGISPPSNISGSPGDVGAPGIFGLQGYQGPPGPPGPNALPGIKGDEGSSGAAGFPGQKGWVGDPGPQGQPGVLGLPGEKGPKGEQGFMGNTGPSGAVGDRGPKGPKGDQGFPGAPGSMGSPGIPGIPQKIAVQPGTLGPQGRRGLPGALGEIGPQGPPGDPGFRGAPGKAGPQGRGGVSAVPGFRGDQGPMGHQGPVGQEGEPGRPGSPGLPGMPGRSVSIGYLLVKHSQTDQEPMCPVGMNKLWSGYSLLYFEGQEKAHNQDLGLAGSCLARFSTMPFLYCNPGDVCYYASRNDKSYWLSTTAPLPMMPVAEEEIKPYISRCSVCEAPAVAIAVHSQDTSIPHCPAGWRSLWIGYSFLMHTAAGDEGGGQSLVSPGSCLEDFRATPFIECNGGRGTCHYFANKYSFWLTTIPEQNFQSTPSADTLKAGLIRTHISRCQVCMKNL

Substance: BSA: control coating protein [reference compound]
Adhesion of added endothelial cells in spreading experiment ([1]; BSA substrate 5 µg/ml, all time intervals (30-90 min)): 1.7-2.2%

Additive effect on maximal turbidity [2]: did not have any additive effect
Competition of bound 125I-peptide by unlabeled corresponding peptide [3]: could not be competed
Nature of binding to type IV collagen ([3]; solid phase, 125I-peptide, pH 7.4): this binding should not be specific
Substance: DPLCPPGTKIL [peptide 1]

Substance: GDSRTITTKGERGQP [peptide ET-2]
Competition for binding of 125I-Hep-I to endothelial cells [4]: failed to compete

Substance: GRGDSP [reference compound]
Effect on endothelial cell adhesion to NC1 domain ([5]; up to 500 µg/ml inhibitor, NC1 coated 20 µg/ml, 60 min at 37C): did not have any effect

Additive effect on maximal turbidity [2]: did not have any additive effect
Substance: MFKKPTPSTLKAGELR [peptide 4]

Nonspecific binding of the peptide to BSA, of total binding to type IV collagen [7]: < 2%
Competition of bound 125I-peptide by unlabeled corresponding peptide [3]: efficient competition
Substance: TAGSCLRKFSTM [peptide Hep-I]
Adhesion of microvascular endothelial cells [6]: also adhered
Adhesion of murine melanoma cells [8]: also adhered
Maximal inhibition of adhesion to type IV collagen [9]: ~ 50%
Inhibition of the binding of heparin to type IV collagen [10]: dose-dependent manner
Endothelial cell adhesion to NC1 domain ([5]; 1 µg (20 µg/ml) peptide, NC1 coated 20 µg/ml, 100% = no inhibitor, 60 min at 37C): ≤ 20%
Inhibition of cell adhesion on NC1 domain substrates ([5]; substrates coated with NC1 domain (Discussion)): ~ 80%
Spread cells, of attached endothelial cells [1, 16]: ~ 60%
Spread cells, of attached endothelial cells ([1]; 60 min, peptide Hep-I substrate 20 µg/ml): 83%
Spread cells, of attached endothelial cells ([1]; 90 min, peptide Hep-I substrate 20 µg/ml): 84%
Competition for binding of 125I-Hep-I to endothelial cells [4]: efficiently competed
Binding to heparin [11]: specifically bound heparin

Substance: heparin
Effect on endothelial cell binding to type IV collagen [12]: unaffected

Substance: intact type IV collagen (EHS tumor) (complex)
percent of the total type IV collagen in the lattice [13]: 74%

Substance: type IV collagen: type IV collagen isolated from the EHS tumor, a murine tumor
Spread cells, of attached endothelial cells [1, 16]: ~ 92.8%
Binding to heparin [11]: specifically bound heparin
Adhesion of added endothelial cells ([14]; coated at 0.05 µg/well, ~5,000/well): ~ 20%
Adhesion of added endothelial cells ([14]; coated at 5 µg/well): ~ 40%
Preferential adhesion of aortic endothelial cells [15]: preferably adhered
